From paper PMC4132908, “Genome-wide annotation and functional identification of aphid GLUT-like sugar transporters” (BMC Genomics, 2014)

Biological target: T1, ApST4 (A. pisum sugar transporter 4) (Acyrthosiphon pisum, UniProt A0A8R2H6Y5)
T1 sequence (A0A8R2H6Y5 64-552): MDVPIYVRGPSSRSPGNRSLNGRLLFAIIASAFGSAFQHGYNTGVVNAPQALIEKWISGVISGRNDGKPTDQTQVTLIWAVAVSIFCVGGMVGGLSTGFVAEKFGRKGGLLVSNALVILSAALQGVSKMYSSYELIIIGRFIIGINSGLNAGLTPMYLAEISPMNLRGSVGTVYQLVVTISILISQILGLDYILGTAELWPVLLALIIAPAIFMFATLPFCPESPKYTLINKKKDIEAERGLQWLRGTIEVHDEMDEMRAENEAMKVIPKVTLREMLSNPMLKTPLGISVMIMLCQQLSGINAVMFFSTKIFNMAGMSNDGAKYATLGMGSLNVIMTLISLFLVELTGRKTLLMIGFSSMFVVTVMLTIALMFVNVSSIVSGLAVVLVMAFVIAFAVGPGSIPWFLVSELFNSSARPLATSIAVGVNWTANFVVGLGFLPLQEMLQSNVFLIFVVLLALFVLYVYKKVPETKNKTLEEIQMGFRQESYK
Test: competition with […]-fructose uptake in whole yeast cells
Type: cell-based
Settings: 50 mM 14C-fructose; 100 mM unlabelled competitor; pH 7.0; 30 °C; 10 min

| Structure (SMILES) | % reduction of 14C-fructose uptake at 100 mM |
| --- | --- |
| OC[C@H]1OC(O)[C@H](O)[C@@H](O)[C@H]1O (some centres unmarked) [galactose] | ~ 21% |
| OC[C@H]1OC(O)[C@@H](O)[C@@H](O)[C@@H]1O (some centres unmarked) [mannose] | > 50% |
